Data set [1] deals with subject diagnosed with Rett Syndrome. The data set is described as follows: Example 1: daily liquid formulation in a subject with Rett Syndrome, follow-up questionnaire. The format is in vivo, human. The note with it: 5 mL of 0.2 mg/mL liquid formulation daily, total daily dose 1 mg. The protocol: A subject diagnosed with Rett Syndrome was daily administered 5 mL of a liquid formulation containing A2-73 at a concentration of 0.2 mg/mL, for a total daily dose of 1 mg of […]2-73.

Data set [2] deals with female subjects diagnosed with Rett Syndrome. The data set is described as follows: Example 5: 7-week treatment of Rett Syndrome subjects, RSBQ and CGI-I. It is filed as in vivo, human. An excerpt:
One useful measure of improvement for one or more symptoms of a genetic neurodevelopmental disorder may be determined using a behavioral questionnaire that interrogates a primary caregiver of a subject at multiple time points during a course of treatment, regarding multiple behavioral indicators of the disorder. For example, a Rett Syndrome Behavior Questionnaire (RSBQ) may comprise multiple, e.g., at least five but optionally 10 or more, such as 12, 15, 20, 25, 30, 35, 40, 45 or 50 or more behavioral indicators which ask for a caregiver's observations of the subject regarding the frequency of specific episodes or occurrences of each indicator. […]
Another useful measurement for one or more symptoms of a genetic neurodevelopmental disorder is a Clinical Global Impression-Improvement scale (CGI-I). This scale measures the improvement or worsening of the subject's condition relative to a baseline state before administration of the dosage form comprising a therapeutically acceptable amount of ANAVEX2-73, as assessed by one or more healthcare professionals. […]
(§1) For efficacy, the following parameters were measured in the female subjects: Rett Syndrome Behavior Questionnaire (RSBQ), Clinical Global Impressions (CGI-I), hand behaviors (RSBQ), breathing problems (RSBQ), waking during sleep (RSBQ), and glutamate biomarker, and GABA biomarkers.
(§2) Evaluation of the efficacy was measured as a comparison from baseline (week 0), week 4, and to end of treatment (week 7). Blood plasma samples were analyzed at week 0 and at week 7 to measure the levels of glutamate and GABA biomarkers. […]

For data set [3], the system named is glutamate and GABA biomarkers. The data set is described as follows: Example 5: plasma glutamate and GABA biomarkers. It is filed as in vivo, human. Particulars: Week 0 vs. Week 7; Wilcoxon Z=−1.992, p (2-tailed)=0.046.
Text: In one aspect, the method further comprises measuring, or having measured or obtained a baseline plasma glutamate and/or gamma aminobutyric acid (GABA) level in the subject prior to treatment with ANAVEX2-73 as described herein, and measuring or having measured or obtained at least a second plasma glutamate and/or gamma aminobutyric acid (GABA) level following a period of treatment with ANAVEX2-73 as described herein. Measurement of a plasma glutamate and/or gamma aminobutyric acid (GABA) level comprises withdrawing a whole blood sample from the subject, separating the blood plasma from remaining whole blood components such as by centrifuging the sample, isolating the blood plasma, and measuring the amount of glutamate and/or gamma aminobutyric acid (GABA) in the blood plasma using any one of several techniques known in the art. […]
as §1, §2

Data set [4] concerns subject, diagnosed with Rett Syndrome. The data set is described as follows: Example 6: liquid formulation in a subject with Rett Syndrome. It is filed as in vivo, human. Particulars: 1 mL of liquid formulation (0.2 mg/mL). The protocol: A subject, diagnosed with Rett Syndrome is administered 1 mL of a liquid formulation (0.2 mg/mL).
In the next data set the test system is healthy male volunteers. Particulars: cited from earlier work.
The format of data set [5] is physicochemical. An excerpt: Dosage formulations used in the disclosed methods comprise a therapeutically effective amount of ANAVEX2-73, the crystalline HCl salt of tetrahydro-N,N-dimethyl-2,2-diphenyl-3-furanmethanamine, or tetrahydro-N,N-dimethyl-2,2-diphenyl-3-furanmethanamine hydrochloride (IUPAC name: 1-(2,2-diphenyloxolan-3-yl)-N,N-dimethylmethanamine hydrochloride). […] Thus ANAVEX2-73 (used herein to refer to the HCl salt or the free base) is highly amenable to incorporation in the dosage formulations disclosed herein. For example, ANAVEX2-73 as either the HCl salt or the free base has a relatively low molecular weight (<400 Da), and is thus well suited for transmucosal or transdermal delivery, or rapid oral delivery. ANAVEX2-73 has a pKa around 8-9, which also makes it well-suited for transmucosal delivery. Therapeutically effective doses of ANAVEX2-73 are well suited for various thin film formulations, including oral and transdermal thin film formulations.

Where [6] appears, read: single oral dose, healthy male volunteers.

`CN(C)CC1CCOC1(c1ccccc1)c1ccccc1.Cl` (centres unmarked) [ANAVEX2-73, tetrahydro-N,N-dimethyl-2,2-diphenyl-3-furanmethanamine hydrochloride]: the “motor skills and cognition according to follow-up questionnaire” value in data set [1] is reported as “improvement”. Also, the “improvement in the RSBQ” value in data set [2] (all six subjects, week 0 to week 7, Wilcoxon Z=−2.207, p (2-tailed)=0.027) was “over 30%”. Further, in data set [2] (correlated, p=0.003), the “RSBQ and CGI-I after 7 weeks” value is “reduction”. Besides, the “parameters measured (FIG. 1, FIG. 2A-D, FIG. 3A-E)” value in data set [2] (orally administered liquid formulation, 7 weeks) is recorded as “vast improvement”. For the same compound, the “levels of glutamate biomarker in plasma” value in data set [3] is reported as “decreased significantly”. Moreover, in data set [4], the CGI-I index result is “improvement” and the “Rett Syndrome Behavior Questionnaire (RSBQ)” value is recorded as “improvement”. Besides, the serious adverse events result with healthy male volunteers (single ascending oral dose, 22 healthy male volunteers) is listed as “No serious adverse events”. Moreover, in the data set on healthy male volunteers (setting [6]), the “maximum tolerable dose (MTD)” value is recorded as 55 mg and the “minimum intolerable dose (MID)” value was 60 mg.
In the case of `CN(C)CC1CCOC1(c1ccccc1)c1ccccc1` (centres unmarked) [free base form of ANAVEX2-73, tetrahydro-N,N-dimethyl-2,2-diphenyl-3-furanmethanamine], the “solubility in organic solvents” value in data set [5] was “soluble in almost all organic solvents”.

The record behind these values is patent US12642784B2, “ANAVEX2-73 for the treatment of genetic neurodevelopmental disorders” (ANAVEX LIFE SCIENCES CORP., priority 2019, dated 2026).
